PubChem BioAssay (NCI)
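Assay format: 96-well plates, 48-hour exposure. At the TGI there is no net growth.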

Experiments:
Experiment in all cases: NCI anticancer screen, dose series, 48 h
A498 renal = tested on: A498 renal
EKVX NSCLC = tested on: EKVX NSCLC
HCC-2998 colon = tested on: HCC-2998 colon
HL-60(TB) leukemia = tested on: HL-60(TB) leukemia
MCF7 breast = tested on: MCF7 breast
MDA-N = tested on: MDA-N
SK-MEL-2 melanoma = tested on: SK-MEL-2 melanoma
SK-OV-3 ovarian = tested on: SK-OV-3 ovarian
T-47D breast = tested on: T-47D breast
U251 CNS = tested on: U251 CNS

Structure (SMILES)	TGI (A498 renal)	TGI (EKVX NSCLC)	TGI (HCC-2998 colon)	TGI (HL-60(TB) leukemia)	TGI (MCF7 breast)	TGI (MDA-N)	TGI (SK-MEL-2 melanoma)	TGI (SK-OV-3 ovarian)	TGI (T-47D breast)	TGI (U251 CNS)
CC(C)C(C/C=C1\CC(CO)(COC(=O)CC(C(C)C)C(C)C)OC1=O)C(C)C (stereo not given)	25.5 µM	23.5 µM	18.7 µM	18.8 µM	31.3 µM	18 µM	38.2 µM	32.1 µM	30.7 µM	29.4 µM
O=C1C(N=Nc2ccc(-c3nc4ccccc4[nH]3)cc2)NC(=S)N1c1ccccc1 (stereo not given)	> 100 µM	> 100 µM	41.7 µM	> 100 µM	24.8 µM	> 100 µM	> 100 µM	> 100 µM	62.8 µM	> 100 µM
CCS(=O)(=O)c1c2cc(OC)ccc2nc2ccc(OC)cc12	> 100 µM	> 100 µM	> 100 µM	> 100 µM	> 100 µM	> 100 µM	> 100 µM	> 100 µM	> 100 µM	> 100 µM
O=C1O[C@]2(c3ccccc3)C(c3ccccc3)=C[C@]2(C(=O)c2ccccc2)C1=O	> 100 µM	> 100 µM	39.2 µM	22.4 µM	81.8 µM	> 100 µM	74.6 µM	> 100 µM	> 100 µM	93.5 µM
NCCCCNC1(c2cc3ccccc3s2)CCCCC1	6.04 µM	29.1 µM	3.1 µM	12.6 µM	9.75 µM	3.39 µM	3.58 µM	28 µM	5.23 µM	5.49 µM
CCOC(=O)N(C)C1(c2ccccc2)CCN(CCCC(=O)c2ccc(F)cc2)CC1	> 100 µM	> 100 µM	42.3 µM	79.1 µM	85.2 µM	41.5 µM	53.5 µM	> 100 µM	> 100 µM	> 100 µM
OCCO[P+]1(OCCO)n2c3ccc2C(c2ccccc2)=C2C=CC(=N2)C(c2ccccc2)=c2ccc(n21)=C(c1ccccc1)C1=NC(=C3c2ccccc2)C=C1	1.49 µM	1.04 µM	0.327 µM	0.222 µM	> 100 µM	0.092 µM	0.0438 µM	0.569 µM	2.09 µM	1.25 µM
Cc1cc(N=C2C=C(Nc3cc(C)on3)C(=O)c3ccccc32)no1	> 100 µM	> 100 µM	> 100 µM	> 100 µM	63 µM	4.02 µM	72.5 µM	> 100 µM	> 100 µM	> 95.1 µM
CN(C)CCn1c(=O)c2ccc3c4c(nn3CCN(C)C)c3ccccc3n(c1=O)c24	1.34 µM	0.112 µM	0.534 µM	2.75 µM	1.05 µM	0.97 µM	1.17 µM	3.43 µM	3.74 µM	1.43 µM
CC(C)(C)OC(=O)NCC(=O)N1CCCN(C(=O)CNC(=O)OC(C)(C)C)CC1	> 100 µM	> 100 µM	> 100 µM	> 100 µM	> 100 µM	> 100 µM	> 100 µM	> 100 µM	> 100 µM	> 100 µM
CCC(C)C1(O)OC2CC3(C)OC(=CC3=O)/C(C)=C\C3OC(=O)C1(C)C32 (stereo not given)	81.9 µM	32.2 µM	30.1 µM	63.8 µM	28.4 µM	21 µM	96.5 µM	> 100 µM	33.7 µM	> 100 µM
Nc1c(S(=O)(=O)O)cc(Nc2cccc(S(=O)(=O)/C=C/S(=O)(=O)O)c2)c2c1C(=O)c1ccccc1C2=O	> 100 µM	> 100 µM	> 100 µM	> 100 µM	> 100 µM	> 100 µM	> 100 µM	> 100 µM	> 100 µM	> 100 µM
CN(C)CCOC1(CC2CCCCC2)CCC(C(C)(C)C)CC1 (stereo not given)	12.9 µM	22 µM	11.7 µM	7.35 µM	7.73 µM	13.1 µM	13.7 µM	24.7 µM	13.6 µM	13.2 µM
O=[N+]([O-])c1ccc(Cl)cc1C=NC12CC3CC(CC(C3)C1)C2	> 100 µM	> 100 µM	> 100 µM	15.6 µM	> 100 µM	> 100 µM	> 100 µM	> 100 µM	> 93.8 µM	> 100 µM
Nc1nc2cc(CNc3ccc(C(=O)NC(CCC(=O)O)C(=O)O)cc3)ccc2nc1-c1ccccc1 (stereo not given)	> 10 µM	> 10 µM	> 10 µM	> 10 µM	> 10 µM	> 10 µM	> 10 µM	> 10 µM	> 10 µM	> 10 µM
Cc1ccc2nc(Cl)c(/C=N/N3C(=O)/C(=C/c4ccc(N(C)C)cc4)N=C3c3ccccc3)cc2c1	> 100 µM	> 100 µM	> 100 µM	> 100 µM	> 100 µM	92.6 µM	98.7 µM	> 100 µM	> 100 µM	> 100 µM
CCOC(=O)C(=Cn1c(=S)[nH]c2ccc([N+](=O)[O-])cc21)C(=O)OCC	> 100 µM	> 100 µM	> 100 µM	> 100 µM	> 100 µM	> 100 µM	> 100 µM	> 100 µM	> 100 µM	> 100 µM
CCOc1cc(C2SCC(=O)N2c2nc3cc4sc(N5C(=O)CSC5c5ccc(O)c(OCC)c5)nc4cc3s2)ccc1O (stereo not given)	> 100 µM	> 100 µM	> 100 µM	> 100 µM	> 86.3 µM	> 100 µM	> 100 µM	> 100 µM	> 100 µM	> 100 µM
C[C@H](CCC1=NCCN1)[C@H]1CC[C@H]2[C@@H]3CC[C@@H]4C[C@H](O)CC[C@]4(C)[C@H]3C[C@H](O)[C@]12C	65.1 µM	34.4 µM	27.6 µM	36 µM	28.5 µM	31 µM	26.7 µM	31.9 µM	30.6 µM	23.7 µM
COc1ccc(C2(C3c4cc(OC)c(OC)cc4CCN3C)SCCCS2)cc1O (stereo not given)	> 100 µM	> 100 µM	> 100 µM	> 100 µM	> 100 µM	> 100 µM	> 100 µM	> 100 µM	> 100 µM	> 100 µM
